Experimental data: patent US7537906B2, “Apoptosis inducer and method of screening for a substance inhibiting acylated homoserine lactone” (priority 2003, dated 2009)

Tests used:
[1] = tested on: JNK; experiment: MAP kinase activity by Western blot in CaCo-2 cells: phosphorylated JNK; format: cell-based, human; details: 10 minutes
Protocol: A CaCo-2 carcinoma cell line of human colon cancer was purchased from American Type Culture Collection (ATCC), and cultured at 37° C. in the presence of 5% CO2 using a DMEM medium containing 10% FCS, 1% NEAA and 1% P/S (100 units/ml penicillin and 100 μg/ml streptomycin).
6×10^5 CaCo-2 cells were inoculated per dish using 6 cm dishes (NUNC), washed twice with phosphate buffered saline (PBS) (-), and then cultured in a serum-free DMEM medium containing 1% NEAA for 24 hours. Subsequently, at a final concentration of 100 μM, homoserine lactone hydrochloride and N-(3-oxododecanoyl)-L-homoserine lactone were each added, and then each solution was allowed to react for 10 minutes. […]
After reaction, the product was washed twice with cold PBS (-), and then frozen at −80° C. […] Concentration of the collected protein was measured, and then the protein equivalent to 50 μg was subjected to SDS-PAGE. […] When phosphorylated ERK, JNK, p38 and Akt were measured, blocking was carried out with 0.1% Tween 20 (TBS-T) containing 5% skim milk/Tris-buffered saline. […]
After cell culture, MAP kinase activity and Akt activity were analyzed by Western blot in a manner similar to that used in (1), except that N-(3-oxododecanoyl)-L-homoserine lactones in final concentrations of 0 μM (0.25% DMSO), 1 μM, 10 μM, 30 μM and 100 μM were each added and each solution was allowed to react for 10 minutes (FIG. 8).

[2] = tested on: CaCo-2 cells; experiment: Evaluation of viability by Trypan blue staining; format: cell-based, human; details: 12 hours of culture
Protocol: 2×10^5 CaCo-2 cells were inoculated in a 3.5 cm dish (NUNC), washed twice with PBS (-), and then cultured in a serum-free DMEM medium containing 1% NEAA for 24 hours. Various agents [N-(3-oxododecanoyl)-L-homoserine lactones with final concentrations between 1 and 100 μM] were added, followed by 12 hours of culture. 0.25% DMSO was used as a control. Subsequently, the supernatant and the cells removed from the dish using trypsin-EDTA (TE) were centrifuged at 800 rpm at room temperature for 5 minutes. The supernatant was removed, and then dilution was carried out with 200 μl of DMEM. 50 μl of the dilution was taken in an Eppen tube, an equivalent volume of Trypan blue stain was added, and then the cell count was measured using a hemacytometer. At this time, the sum of the dead cell count and the viable cell count to be measured was determined to be 200 cells or more.

[3] = tested on: IL-8; details: human alveolar cells; cited from earlier work

With CCCCCCCCCC(=O)CC(=O)N[C@H]1CCOC1=O [N-(3-oxododecanoyl)-L-homoserine lactone] the “JNK activity, concentration dependence” value ([1]; 0-100 μM) was “no concentration-dependent significant difference”, the “activation of JNK” value ([1]; 100 μM) was “promoted” and the viability ([2]; 1 μM) was 94%. The viability ([2]; 10 μM) was 90%, the viability ([2]; 30 μM) was 55% and the viability ([2]; 100 μM) was 51%. For the same molecule, the “concentration at which viability was significantly decreased” value [2] was no less than 30 µM and the IL-8 production [3] was “stimulates”.
